Reference: patent US9358247B2, “Methods and compositions for promoting activity of anti-cancer therapies” (Oncology Research International Limited, priority 2006, dated 2016)

Assays:
Format in all cases: cell-based, human
K562 cell line = test: Cancer cell growth inhibition, SRB dye assay (single agents and 50:50 IC50 mixtures); details: Homo sapiens, 144 h, Example 6, value used to make up 50:50 IC50 mixtures, read-out: IC50 values used in assay
Experimental: (§1) Cancer cells were seeded the day before application of drug in triplicate or quadruplicate in 96-well plates, allowed to grow in the presence of drug for 6 days before cell growth relative to untreated control wells was determined with a dye assay.
(§2) Cells were seeded in triplicate or quadruplicate at 3-4,000 per microtitre well in 90 μl of RPMI culture medium/10% foetal calf serum/penicillin, streptomycin mix, treated with 10 μl of drug (prepared in a dilution plate at 10× concentration required), and allowed to grow until the controls were nearly confluent (6 days).
(§3) SRB: Plates were washed with PBS, fixed with methylated spirits, washed with tap water and stained with 50 μL/well of SRB solution (sulforhodamine, 0.4% in 1% acetic acid), followed by washing with tap water and 1% acetic acid, solubilisation in Tris and absorbance read at 564 nm in an ELISA reader.
(§4) Data was collected using ELISA plate reader software—SOFTmax PRO3.1.2, then imported into EXCEL. The mean and SD of replicates were calculated as a % of control, after subtraction of the blank value (wells with no cells). A graph was plotted of % control vs dose of agent and IC50 (half maximal inhibitory concentration) values determined.
(§5) Tumour cells were seeded in duplicate in 96-well plates at 2-5,000 per microtitre well containing RPMI culture medium/10% foetal calf serum. The cells were allowed to grow until the controls were nearly confluent after 5-6 days. Plates were then washed with PBS, fixed in ethanol and stained with 50 μL/well of SRB solution (sulforhodamine, 0.4% in 1% acetic acid), followed by washing with 1% acetic acid and solubilisation in Tris. The absorbance was read at 564 nm using an ELISA reader.
(§6) The IC50, or concentration required to inhibit cell growth by 50%, was determined from the percentage inhibition versus concentration data using the probit calculation methods of Finney (Finney D J (1971). Probit Analysis. 3rd Edition. Cambridge University Press).
(§7) The inhibitory data from each mixture was used to determine an IC50 of IC50 value, where the concentrations used were the Multiplying Factor values. In order to determine the actual IC50 contribution of each component in the two-component mixture, the IC50 of IC50 value was multiplied by the IC50 of the individual component. This can then be used to determine the reduction in IC50 contribution (ie, reduction in dose) of the chemotherapeutic agent due to the presence of the steroid saponin in the mixture. A simpler way of determining the reduction in dose is to use the following simple formula: […]
The cell seeding and ELISA plate methodology of Example 2 were used for determining inhibition of the K562 cell line.

MCF7 cell line = test: as above
Experimental: (§8) Cancer cells were seeded the day before application of drug in triplicate or quadruplicate in 96-well plates, allowed to grow in the presence of drug for 6 days before cell growth relative to untreated control wells was determined with a dye assay. Cells were seeded in triplicate or quadruplicate at 3-4,000 per microtitre well in 90 μl of RPMI culture medium/10% foetal calf serum/penicillin, streptomycin mix, treated with 10 μl of drug (prepared in a dilution plate at 10× concentration required), and allowed to grow until the controls were nearly confluent (6 days). SRB: Plates were washed with PBS, fixed with methylated spirits, washed with tap water and stained with 50 μL/well of SRB solution (sulforhodamine, 0.4% in 1% acetic acid), followed by washing with tap water and 1% acetic acid, solubilisation in Tris and absorbance read at 564 nm in an ELISA reader. Data was collected using ELISA plate reader software—SOFTmax PRO3.1.2, then imported into EXCEL. The mean and SD of replicates were calculated as a % of control, after subtraction of the blank value (wells with no cells). A graph was plotted of % control vs dose of agent and IC50 (half maximal inhibitory concentration) values determined. […] The cells were allowed to grow until the controls were nearly confluent after 5-6 days. Plates were then washed with PBS, fixed in ethanol and stained with 50 μL/well of SRB solution (sulforhodamine, 0.4% in 1% acetic acid), followed by washing with 1% acetic acid and solubilisation in Tris. The absorbance was read at 564 nm using an ELISA reader. […] Cambridge University Press). […] The inhibitory data from each mixture was used to determine an IC50 of IC50 value, where the concentrations used were the Multiplying Factor values. In order to determine the actual IC50 contribution of each component in the two-component mixture, the IC50 of IC50 value was multiplied by the IC50 of the individual component. This can then be used to determine the reduction in IC50 contribution (ie, reduction in dose) of the chemotherapeutic agent due to the presence of the steroid saponin in the mixture. A simpler way of determining the reduction in dose is to use the following simple formula: […]

LNCap cell line = test: as above
Experimental: as §8

[1] = tested on: PC3, DU145, A549 and HT29 cell lines; test: Cancer cell growth inhibition, IC50 values used in assay for four cell lines (Example 5); details: Homo sapiens, value used to make up 50:50 IC50 mixtures
Experimental: as §5, §6
The cell seeding and ELISA plate methodology of Example 2 were used for determining inhibition of four cancer cell lines. IC50 values were determined for the steroid saponins dioscin, deltonin and prosapogenin A, and their mixtures with cisplatin, docetaxel, doxorubicin and vincristine, using PC3, DU145, A549 and HT29 cell lines.

A549 cell line = test: Cancer cell growth inhibition, SRB dye assay (single agents and 50:50 IC50 mixtures); details: Homo sapiens, 144 h, Example 4, value used to make up 50:50 IC50 mixtures, read-out: IC50 values used in assay
Experimental: as §1, §2, §3, §4, §5, §6, §7

[2] = 50:50 IC50 mixture vs vincristine alone, Example 3
[3] = Homo sapiens, 144 h, Example 3, value used to make up 50:50 IC50 mixtures, read-out: IC50 values used in assay

SMILES: C[C@@H]1CC[C@@]2(OC1)O[C@H]1C[C@H]3[C@@H]4CC=C5C[C@@H](O[C@@H]6O[C@H](CO)[C@@H](O[C@@H]7O[C@H](CO)[C@@H](O)[C@H](O)[C@H]7O)[C@H](O)[C@H]6O[C@@H]6O[C@@H](C)[C@H](O)[C@@H](O)[C@H]6O)CC[C@]5(C)[C@H]4CC[C@]3(C)[C@H]1[C@@H]2C [Deltonin, diosgenin Rha2, [Glc4], Glc]
- IC50 (K562 cell line): 1 µM
- Vincristine Dose Reduction (MCF7 cell line; [2]): consistent reduction in dosage
- IC50 (MCF7 cell line; [3]): 1 µM
- Vincristine Dose Reduction (LNCap cell line; [2]): consistent reduction in dosage
- IC50 (LNCap cell line; [3]): 1 µM
- IC50 [1]: 1 µM
- IC50 (A549 cell line): 1 µM
